Publication PMC9309159, “Identification of heptapeptides targeting a lethal bacterial strain in septic mice through an integrative approach” (Signal Transduction and Targeted Therapy, 2022)
“Also recorded” adds a separate entry of the source. Ends that are not written are not given here. * marks the point of attachment. Biotin = O=C1N[C@H]2[C@H](CS[C@H]2CCCCC(=O)*)N1

Assays:
[1] = biological target: DEGQ protein; experiment: SPRi assay of peptide binding to DEGQ protein; parameters: species or system E. coli MSI001; details: control peptide immobilized on chip, value printed in picture of Fig. 8e
Experimental: (§1) Protein profiles were determined by cPCoA distance among samples and characterized by close intragroup distances among samples. b Hierarchical clustering analysis of proteins from the HEE, VTK and input groups. […] Label-free mass spectrometry was used to quantitate proteins from the HEE, VTK and input groups. Red represents high expression, while blue represents low expression. c Volcano plot of proteins from the VTK group and HEE group. […] DEGP or DEGQ protein at different concentrations (5 nmol/L, 10 nmol/L, 20 nmol/L) in solution flowed on an SPRi chip. Binding data were collected and analyzed by commercial SPRi analysis software (Plexera SPR Data Analysis Model, Plexera, USA).
(§2) To measure the binding affinity of peptides with targeted proteins, a PlexArray HT A100 (Plexera, USA) Surface Plasmon Resonance imaging (SPRi) system was used to monitor the whole procedure in real time. Briefly, a chip with a well-prepared peptide microarray was assembled with a plastic flow cell for sample loading. The operation details for the PlexArray HT were as described previously.[65] The purified protein samples were prepared at determined concentrations in PBS running buffer, while glycine-HCl buffer (10 mmol/L, pH 2.0) was used for regeneration. Binding data were collected and analyzed by SPR Data Analysis Module software (Plexera, USA). […]

[2] = biological target: DEGP protein; experiment: SPRi assay of peptide binding to DEGP protein; parameters: species or system E. coli MSI001; details: control peptide immobilized on chip, value printed in picture of Fig. 8e
Experimental: as §1, §2

[3] = system: bacterial strain MSI001; experiment: In vitro antibacterial assay (colony counting); assay type: cell-based, Escherichia coli; details: 1 × 10^3 CFU, peptide 0.25, 0.5, 1 μmol/L, 37 °C, 1-8 h, colony count, n = 3
Experimental: Fig. 6 Antimicrobial activity of the C7C-LL37 fusion peptides in vitro. a Primary structures and physical properties of the C7C and LL37 fusion peptides, including LL37, VTK-LL37, LL37-VTK, KYY-LL37 and LL37-KYY, ISS-LL37, INS-LL37. Net charge, PI and GRAVY values were acquired as described above. b Inhibitory effect of C7C-LL37 fusion peptides on bacterial growth. A C7C-LL37 fusion peptide or LL37 alone was added to the cultured bacterial strain MSI001 (1 × 10^3 CFU) at final concentrations of 0.25 μmol/L, 0.5 μmol/L and 1 μmol/L. Sterile DPBS was used as control. After incubation with the C7C-LL37 or LL37 peptides at 37 °C for different times (1-8 h), bacterial colonies were counted. n = 3. *P < 0.05, VTK-LL37 group compared to LL37 group; ^#P < 0.05, LL37-VTK group compared to LL37 group. c, d Inhibitory effect of VTK-LL37 on biofilm formation. The VTK-LL37 or LL37 peptide was added to the bacterial culture at a final concentration of 0-4 μmol/L and incubated at 37 °C for 3 days. Bacterial culture medium and the peptides were refreshed every day. The biofilm was stained with 1% crystal violet, and the precipitates were dissolved in 95% ethanol, followed by detection of absorbance at 570 nm (A570) (c). Moreover, the biofilm was observed under a microscope (d). n = 5. *P < 0.05, VTK-LL37 group compared to LL37 group […]

[4] = biological target: T1, DEGQ protein, purified (SPRi analyte) (E. coli (strain MSI001), UniProt P39099 28-455); experiment: SPR; details: both partners purified
T1 sequence (looked up): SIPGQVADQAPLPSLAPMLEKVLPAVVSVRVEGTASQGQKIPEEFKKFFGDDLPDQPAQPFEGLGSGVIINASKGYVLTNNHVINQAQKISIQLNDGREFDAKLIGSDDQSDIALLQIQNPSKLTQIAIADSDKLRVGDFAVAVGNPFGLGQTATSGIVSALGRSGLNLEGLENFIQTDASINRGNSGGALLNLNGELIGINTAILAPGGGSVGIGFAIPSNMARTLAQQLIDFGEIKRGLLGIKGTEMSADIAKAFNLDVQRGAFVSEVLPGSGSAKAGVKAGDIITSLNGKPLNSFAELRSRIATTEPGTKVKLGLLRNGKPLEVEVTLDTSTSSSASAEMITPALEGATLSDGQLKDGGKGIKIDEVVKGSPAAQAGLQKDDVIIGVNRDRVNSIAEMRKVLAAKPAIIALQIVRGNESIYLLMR

[5] = biological target: T2, DEGP protein, purified (SPRi analyte) (E. coli (strain MSI001), UniProt P0C0V0 27-474); experiment: SPR; details: both partners purified
T2 sequence (looked up): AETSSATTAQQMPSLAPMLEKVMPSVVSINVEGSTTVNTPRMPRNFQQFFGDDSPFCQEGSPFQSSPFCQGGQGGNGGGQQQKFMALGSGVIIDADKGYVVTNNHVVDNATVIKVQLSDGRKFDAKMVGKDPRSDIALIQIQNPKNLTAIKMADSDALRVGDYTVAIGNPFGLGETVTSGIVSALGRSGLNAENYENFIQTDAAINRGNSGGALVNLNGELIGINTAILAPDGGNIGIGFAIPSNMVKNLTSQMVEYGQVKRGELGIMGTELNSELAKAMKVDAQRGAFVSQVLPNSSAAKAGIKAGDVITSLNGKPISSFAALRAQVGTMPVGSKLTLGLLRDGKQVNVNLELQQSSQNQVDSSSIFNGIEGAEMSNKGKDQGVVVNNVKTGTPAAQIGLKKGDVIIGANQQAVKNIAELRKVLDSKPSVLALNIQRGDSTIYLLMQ

What does the source list for “Biotin-CHEEWLPAC (cysteine pairing not given here) [control HEE heptapeptide]”?
Kd [1]: 1000 nM; Kd [2]: 5250 nM

Which “inhibitory effect on bacterial growth of MSI001” value [3] does the source give for “LLGDFFRKSKEKIGKEFKRIVQRIKDFLRNLVPRTESVPGVGCVTKLGSLC [LL37-VTK]” here?
The value was “inhibited MSI001 bacterial growth but also showed stronger antibiotic activity than LL37 alone in the early stage (1-3 h); also recorded: stronger bacteriostatic activity than other LL37 fusion peptides”.

B1: VTK heptapeptide VTKLGSL, synthesized (immobilised on the SPRi chip) (peptide)
peptide: VTKLGSL
notes: also called VTK peptide; source: synthetic peptide
With B1 as the molecule, how does the Kd [4] read?
Its Kd is 1.73 nM.

And the Kd [5]?
Its Kd is 15.8 nM.
